Experimental data published in patent US10758633B2, “Nanoparticles for magnetic resonance imaging applications” (Massachusetts Institute of Technology, priority 2014, dated 2020).

Assay: MRI contrast enhancement in blood over time, 1.5 T clinical MRI, mice brain slice
Type: in vivo
Details: intravenous injection, T1-weighted
Method: The MRI contrast enhancement of Magnevist® (the most commonly used gadolinium-based contrast agents, GBCAs) and ES-SPIONs in blood were compared over time. According to approved animal protocols, mice were scanned in a 1.5 T clinical MRI machine. After intravenous injection of Magnevist or ES-SPIONs, the T1-weighted images of a single slice in mice brain were taken using clinical MRI sequences (˜3.5 mins time length), and then the half-life of contrast enhancements of both agents were compared side-by-side. […] Left and right images show corresponding side views of the image in the middle. It can be seen in FIG. 6 that a three dimensional profile highlighting the blood vessels in brain was generated.

- half-life of contrast enhancement: ~2 min
SMILES: CNC[C@H](O)[C@@H](O)[C@H](O)[C@H](O)CO.CNC[C@H](O)[C@@H](O)[C@H](O)[C@H](O)CO.O=C([O-])CN(CCN(CC(=O)[O-])CC(=O)O)CCN(CC(=O)[O-])CC(=O)O.[Gd+3] [Magnevist]
